Data published in patent publication US20180049457A1, “ENZYMATIC SYNTHESIS OF SOLUBLE GLUCAN FIBER” (E I DU PONT DE NEMOURS AND COMPANY, priority 2014, published 2018).

Key:
[1] = tested on: human faecal microbiota; assay: Colonic fermentation modeling (semi-continuous colon simulator) and measurement of fatty acids; format: cell-based; settings: test component 1% in ileal fluid, 48 h
Excerpt: Colonic fermentation was modeled using a semi-continuous colon simulator as described by Makivuokko et al. (Nutri. Cancer (2005) 52(1):94-104); in short; a colon simulator consists of four glass vessels which contain a simulated ileal fluid as described by Macfarlane et al. (Microb. Ecol. (1998) 35(2):180-187). The simulator is inoculated with a fresh human faecal microbiota and fed every third hour with new ileal liquid and part of the contents is transferred from one vessel to the next. The ileal fluid contains one of the described test components at a concentration of 1%. The simulation lasts for 48 h after which the content of the four vessels is harvested for further analysis. The further analysis involves the determination of microbial metabolites such as short chain fatty acids (SCFA); also referred to as volatile fatty acids (VFA) and branched chain fatty acids (BCFA). Analysis was performed as described by Holben et al. (Microb. Ecol. (2002) 44:175-185); in short; simulator content was centrifuged and the supernatant was used for SCFA and BCFA analysis. Pivalic acid (internal standard) and water were mixed with the supernatant and centrifuged. After centrifugation, oxalic acid solution was added to the supernatant and then the mixture was incubated at 4° C., and then centrifuged again. The resulting supernatant was analyzed by gas chromatography using a flame ionization detector and helium as the carrier gas. Comparative data generated from samples of LITESSE® ULTRA™ (polydextrose, Danisco), ORAFTI® P95 (oligofructose; fructo-oligosaccharide, “FOS”, Beneo), lactitol (Lactitol MC (4-O-β-D-galactopyranosyl-D-glucitol monohydrate, Danisco), and a negative control is also provided. The concentration of acetic, propionic, butyric, isobutyric, valeric, isovaleric, 2-methylbutyric, and lactic acid was determined (Table 64).

[2] = tested on: intestinal microbiota; assay: In vitro gas production by intestinal microbiota (pre-conditioned faecal slurry); format: cell-based
Protocol: To measure the formation of gas by the intestinal microbiota, a pre-conditioned faecal slurry was incubated with test prebiotic (oligosaccharide or polysaccharide soluble fibers) and the volume of gas formed was measured. Fresh faecal material was pre-conditioned by dilution with 3 parts (w/v) of anaerobic simulator medium, stirring for 1 h under anaerobic conditions and filtering through 0.3-mm metal mesh after which it was incubated anaerobically for 24 h at 37° C.
The simulator medium used was composed as described by G. T. Macfarlane et al. (Microb. Ecol. 35(2):180-7 (1998)) containing the following constituents (g/L) in distilled water: starch (BDH Ltd.), 5.0; peptone, 0.05; tryptone, 5.0; yeast extract, 5.0; NaCl, 4.5; KCl, 4.5; mucin (porcine gastric type III), 4.0; casein (BDH Ltd.), 3.0; pectin (citrus), 2.0; xylan (oatspelt), 2.0; arabinogalactan (larch wood), 2.0; NaHCO3, 1.5; MgSO4, 1.25; guar gum, 1.0; inulin, 1.0; cysteine, 0.8; KH2PO4, 0.5; K2HPO4, 0.5; bile salts No. 3, 0.4; CaCl2×6 H2O, 0.15; FeSO4×7 H2O, 0.005; hemin, 0.05; and Tween 80, 1.0; cysteine hydrochloride, 6.3; Na2S×9 H2O, and 0.1% resazurin as an indication of sustained anaerobic conditions. The simulation medium was filtered through 0.3 mm metal mesh and divided into sealed serum bottles.
Test prebiotics were added from 10% (w/w) stock solutions to a final concentration of 1%. The incubation was performed at 37° C. while maintaining anaerobic conditions. Gas production due to microbial activity was measured manually after 24 h incubation using a scaled, airtight glass syringe, thereby also releasing the overpressure from the simulation unit.
Solutions of chromatographically-purified soluble oligosaccharide/polysaccharide fibers were dried to a constant weight by lyophilization. The individual soluble oligosaccharide/polysaccharide soluble fiber samples were subsequently evaluated as carbon source for in vitro gas production using the method described in the General Methods. PROMITOR® 85 (soluble corn fiber, Tate & Lyle), NUTRIOSE® FM06 (soluble corn fiber or dextrin, Roquette), FIBERSOL-2® 600F (digestion-resistant maltodextrin, Archer Daniels Midland Company & Matsutani Chemical), ORAFTI® GR (inulin from Beneo, Mannheim, Germany), LITESSE® Ultra™ (polydextrose, Danisco), GOS (galactooligosaccharide, Clasado Inc., Reading, UK), ORAFTI® P95 (oligofructose (fructo-oligosaccharide, FOS, Beneo), LACTITOL MC (4-O-β-D-Galactopyranosyl-D-glucitol monohydrate, Danisco) and glucose were included as control carbon sources. Table 61 lists the In vitro gas production by intestinal microbiota at 3 h and 24 h. Table 62 lists the in vitro gas production by intestinal microbiota from controls and the sequences identified from the GTF0459 homolog sequence search. Table 63 lists the in vitro gas production by intestinal microbiota from controls and truncations of homolog sequences identified from the GTF0459 homolog sequence search.

Row | Compound | Acetic [1] [mM] | Branched Chain Fatty Acids (BCFA) [1] [mM] | Butyric [1] [mM] | Lactic [1] [mM] | Propionic [1] [mM] | Short Chain Fatty Acids (SCFA) [1] [mM] | mL gas formation in 3 h ([2]; Table 61) [mL] | mL gas formation in 3 h ([2]; Table 62) [mL] | mL gas formation in 3 h ([2]; Table 63) [mL] | mL gas formation in 24 h ([2]; 24 h, Table 61) [mL] | mL gas formation in 24.5 h ([2]; Table 62) [mL] | mL gas formation in 24.5 h ([2]; Table 63) [mL]
1 | O.OC[C@@H](O)[C@@H](O[C@@H]1O[C@H](CO)[C@H](O)[C@H](O)[C@H]1O)[C@H](O)[C@@H](O)CO [LACTITOL MC, 4-O-β-D-Galactopyranosyl-D-glucitol monohydrate] | 318 | 7.5 | 94 | 52 | 42 | 506 |  |  |  |  |  | 
2 | O.OC[C@@H](O)[C@@H](O[C@@H]1O[C@H](CO)[C@H](O)[C@H](O)[C@H]1O)[C@H](O)[C@@H](O)CO [LACTITOL ® MC] |  |  |  |  |  |  | 2.0 | 2.0 | 3.0 | 4.8 | 1.5 | 2.0
